The values below come from patent US9228998B2, “Drug monitoring methods using the promyelocytic leukemia protein as a redox sensor” (Institut National de la Sante et de la Recherche Medicale …, priority 2010, dated 2016).

“Also recorded” adds a separate entry of the source.

For one assay, the target named is T1, PML NBs (Homo sapiens, UniProt P29590).
T1 construct: endogenous in cells
T1 sequence (P29590 1-882): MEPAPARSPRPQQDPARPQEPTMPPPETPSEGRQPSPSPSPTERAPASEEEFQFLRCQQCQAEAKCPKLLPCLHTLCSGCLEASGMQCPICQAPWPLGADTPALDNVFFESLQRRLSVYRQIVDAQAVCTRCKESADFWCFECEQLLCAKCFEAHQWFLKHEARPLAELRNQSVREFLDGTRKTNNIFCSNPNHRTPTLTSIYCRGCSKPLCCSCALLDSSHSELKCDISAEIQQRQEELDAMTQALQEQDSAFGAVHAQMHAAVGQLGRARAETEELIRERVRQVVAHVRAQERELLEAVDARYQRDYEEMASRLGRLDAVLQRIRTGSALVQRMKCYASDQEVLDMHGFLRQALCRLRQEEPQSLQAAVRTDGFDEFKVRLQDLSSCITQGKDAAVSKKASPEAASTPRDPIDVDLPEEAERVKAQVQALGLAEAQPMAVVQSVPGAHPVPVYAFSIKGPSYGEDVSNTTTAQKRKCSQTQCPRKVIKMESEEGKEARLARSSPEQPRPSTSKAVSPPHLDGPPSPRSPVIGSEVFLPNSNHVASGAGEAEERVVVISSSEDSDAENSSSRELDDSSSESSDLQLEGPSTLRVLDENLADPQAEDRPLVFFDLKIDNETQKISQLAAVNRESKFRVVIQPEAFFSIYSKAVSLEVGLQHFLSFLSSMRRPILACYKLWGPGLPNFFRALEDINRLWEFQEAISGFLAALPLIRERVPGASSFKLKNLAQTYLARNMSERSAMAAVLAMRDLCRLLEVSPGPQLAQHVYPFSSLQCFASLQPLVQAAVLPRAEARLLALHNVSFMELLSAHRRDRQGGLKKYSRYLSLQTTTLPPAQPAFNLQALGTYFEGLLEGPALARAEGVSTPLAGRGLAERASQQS
Put plainly: PML NB labelling in in situ nuclear matrix preparations (immunofluorescence). Type of assay: cell-based. Conditions: nuclear matrix prepared in situ, exposure to DTT. On the procedure:
(§1) Immunofluorescence, electronic microscopy and antibodies were previously described^15. In situ nuclear matrix preparations were prepared as described^1. Confocal analyses were performed on a LSM510 Meta laser microscope (Carl Zeiss MicroImaging, Inc.) with a plan apochromat 63X N.A.1.4 oil immersion objective and increased resolution images were obtained with deconvolution software (Autodeblur, Image Quant) using blind iterative algorithms.
(§2) Intermolecular disulfide bonds were previously implicated in stabilization of the nuclear matrix. […] We then compared total and nuclear matrix extracts from transiently transfected CHO cells under non-reducing conditions and observed that the matrix fraction was dramatically enriched in covalent PML dimers.
The matrix-associated PML fraction is hypersumoylated. Conversely, deletion of the coiled-coil of PML abrogates its association to the nuclear matrix, NB formation, and sumoylation. Thus, whereas As2O3 induces PML targeting to the matrix and NB formation independently of sumoylation, matrix association contributes to basal or As2O3-enhanced PML sumoylation. We therefore questioned how As2O3 could promote transfer from soluble diffuse nuclear PML to insoluble, matrix-associated NBs. As2O3 controls protein phosphorylation and ROS production. […]

The next assay concerns lamin B. Put plainly: lamin B staining in in situ nuclear matrix preparations. Type of assay: cell-based. Conditions: nuclear matrix prepared in situ, exposure to DTT. On the procedure: as §1
The mouse anti-GFP antibody was from Roche Applied Science; Goat polyclonal anti-Lamin B (M20), rabbit polyclonal anti-RXRa (D20) and anti-Daxx (M-112) were from Santa Cruz Biotechnology. Rabbit polyclonal anti-Daxx from G. Grosveld was used for Western blot analysis. Anti SUMO-1 (mouse monoclonal anti GMP-1 antibody) and Rabbit polyclonal anti-SUMO-2/3 antibodies were from Zymed Laboratories. Rabbit polyclonal anti-RARA115 was a kind gift of Pierre Chambon. […] Fluorescence was quantified with ImageJ software.
as §2
The matrix-associated PML fraction is hypersumoylated. […]

For `O[C@@H](CS)[C@@H](O)CS` [DTT], the “PML NB labelling in in situ nuclear matrix” value at PML NBs was “PML NB labelling was lost; also recorded: disrupted endogenous PML NBs”. In the assay with lamin B, the “lamin B staining” value was “unaffected; also recorded: without affecting lamin-B staining”.
